Assay results: patent publication USRE38551E1, “Anticonvulsant enantiomeric amino acid derivatives” (priority 1996, dated 2004)

Legend:
[1] = tested on: maximal electroshock (MES) induced seizure; assay: maximal electroshock (MES) seizure test, mice (ip); format: in vivo; conditions: for MES, ED50 / PI protective index (TD50/MES ED50): mice; for MES, ED50 / ED50 / PI protective index (TD50/MES ED50): ip; for MES, ED50: at time of peak effect (hours in brackets); for ED50: Mus musculus
Description: (§1) Compounds were screened for anticonvulsant activity in both male albino Carthworth Farms No. 1 mice (ip route) and male albino Sprague Dawley rats [oral (po) route]. Activity was established using the electrical (maximal electroshock or MES) test. In the MES test, a drop of electrolyte solution with anesthetic (0.5% butacaine hemisulfate in 0.9% sodium chloride) was used in the eyes of the animals prior to positioning the corneal electrodes and delivery of current. […] Protection endpoints were defined as the abolition of the hind limb tonic extensor component of the induced seizure. In mice, effects of compounds on forced spontaneous motor activity were determined using the rotorod test. […] Normally under these conditions, mice maintain their balance almost indefinitely. In rats, motor impairment is assessed by observing for overt evidence of ataxia, abnormal gait and stance, and/or loss of placing response and muscle tone. In the mouse identification screening study all compounds were given at three dose levels (30, 100, 300 mg/kg) and two time periods (0.5 hours, 4 hours). Typically, in the MES seizures test one animal was tested at 30 mg/kg and 300 mg/kg, and three animals at 100 mg/kg. In the rotored toxicity test four animals were tested at 30 mg/kg, and 300 mg/kg, and eight animals at 100 mg/kg.
(§2) The quantitative determination of the median effective (ED50) and toxic doses (TD50) was conducted at previously calculated times of peak effect. Groups of at least eight animals were tested using different doses of test compound until at least two points wee determined between 100 and 0% protection and minimal motor impairment.

motor impairment = motor impairment (ataxia, gait, stance) observation, rats (po); format: in vivo; conditions: rat, po, at time of peak effect
Description: (§3) Compounds were screened for anticonvulsant activity in both male albino Carthworth Farms No. 1 mice (ip route) and male albino Sprague Dawley rats [oral (po) route]. Activity was established using the electrical (maximal electroshock or MES) test. In the MES test, a drop of electrolyte solution with anesthetic (0.5% butacaine hemisulfate in 0.9% sodium chloride) was used in the eyes of the animals prior to positioning the corneal electrodes and delivery of current. A 60 cycle alternating current was administered for 0.2 sec. in both species, 50 mA in mice and 150 mA in rats. Protection endpoints were defined as the abolition of the hind limb tonic extensor component of the induced seizure. In mice, effects of compounds on forced spontaneous motor activity were determined using the rotorod test. […] Normally under these conditions, mice maintain their balance almost indefinitely. In rats, motor impairment is assessed by observing for overt evidence of ataxia, abnormal gait and stance, and/or loss of placing response and muscle tone. In the mouse identification screening study all compounds were given at three dose levels (30, 100, 300 mg/kg) and two time periods (0.5 hours, 4 hours). Typically, in the MES seizures test one animal was tested at 30 mg/kg and 300 mg/kg, and three animals at 100 mg/kg. In the rotored toxicity test four animals were tested at 30 mg/kg, and 300 mg/kg, and eight animals at 100 mg/kg.
(§4) The quantitative determination of the median effective (ED50) and toxic doses (TD50) was conducted at previously calculated times of peak effect. Groups of at least eight animals were tested using different doses of test compound until at least two points wee determined between 100 and 0% protection and minimal motor impairment. The dose of candidate substance required to produce the defined end-point in 50% of the animals in each test and the 95% confidence interval was calculated.

[2] = rotorod neurologic toxicity test, mice (ip); format: in vivo; conditions: male, ip; for TD50: Carthworth Farms No. 1, mouse, in vivo, mice, rotorod test, at time of peak effect, read-out: tox, TD50
Description: as §1, §4

[3] = tested on: maximal electroshock (MES) induced seizure; assay: maximal electroshock (MES) seizure test, rats (po); format: in vivo; conditions: for ED50 / PI protective index (TD50/MES ED50) / MES, ED50: po
Description: as §1, §2

hexobarbital sleep time = hexobarbital sleep time test; format: in vivo; conditions: rats, 5 daily doses of 48 mg/kg
Protocol: All rats subjected to the 5-day tolerance studies were maintained in their home cage for 24 hours and then subjected to the hexobarbital sleep time test (day 6). Each rat in each of the 3 groups was given 100 mg/kg of hexobarbital (i.p.) and the sleep time measured to the nearest minute. The mean sleep time and S.E. for each group were calculated.

[4] = tested on: maximal electroshock (MES) induced seizure; assay: 5-day chronic treatment tolerance study (MES test); format: in vivo; conditions: rats, 5 daily doses of 48 mg/kg
Protocol: Compound C, i.e., N-acetyl-D, L-phenylglycine N-benzylamide was subjected to 5-day chronic treatment on anticonvulsant activity (maximal electroshock). 3 groups of 8 animals each were treated as follows. One group was given the MES ED50 of the test drug for 5 days; the second group was given the requisite volume of the vehicle (0.04 ml/10 g body wt.) for 4 days and a single dose (MES ED50) of the test drug on day 5; and the third group was given the requisite volume of the vehicle daily for 5 days. At the time of peak effect of the candidate substance on day 5, all groups were subjected to the MES test and the number of animals protected recorded. Seizure components of the unprotected animals were timed to the nearest 10th of a second and the extensor/flexor (E/F) ratio, S.E., and p value determined. Since extensor duration decreases and flexor duration increases as a maximal seizure is attenuated, the E/F ratio provides a measure of seizure severity.

[5] = motor impairment (ataxia, gait, stance) observation, rats (po); format: in vivo; conditions: male, Sprague Dawley, in vivo, rat; for TD50: po, at time of peak effect, read-out: tox, TD50
Description: as §3, §4

liver microsomal system = assay: 7-day liver microsomal studies; format: in vivo, rats
Protocol: Two of the three groups of animals subjected to the hexobarbital sleep time test (chronically treated and vehicle control groups) were continued on their respective original treatment regimen for two days (days 6 and 7) and 24 hours later (day 8) subjected to liver microsomal studies. The rats were decapitated and the livers perfused with 0.9% sodium chloride solution. The livers were removed, weighed, and homogenized in 0.25M sucrose. Microsomes were prepared and their drug metabolizing capabilities (microsomal protein yield; cytochrome P-450 concentration; p-nitroanisole O-demethylase and NADPH cytochrome c reductase activities; norbenzphetamine MI complex formation; and glucuronyl transferase, erythromycin demethylase, and ethylmorphine demethylase activities) measured (Arch. Biochem. Biophys. 143: 318-329, 1971).

[6] = tested on: motor impairment (rotorod test); assay: rotorod neurologic toxicity test, mice (ip); format: in vivo; conditions: mice, ip, rotorod test, at time of peak effect
Description: as §1, §4

[7] = rat, at time of peak effect, read-out: MES, ED50
[8] = liver microsomes, rats, p.o., 48 mg/kg, Treated 7 Days
[9] = rats, p.o., 48 mg/kg, Treated 7 Days

COC(NC(C)=O)C(=O)NCc1ccccc1 (racemic) [compound 4, D,L-2-Acetamido-N-benzyl-2-methoxyacetamide]
MES, ED50 [1]: 98.30 mg/kg

COCC(NC(C)=O)C(=O)NCc1ccccc1 (racemic) [compound 9, N-Benzyl 2-Acetamido-3-methoxypropionamide(racemic mixture)]
tox, TD50 (motor impairment): 386.8 [1] mg/kg

CC(=O)NC(C(=O)NCc1ccccc1)c1ccccc1 (racemic) [compound 13, N-Acetyl-D,L-phenylglycine-N-benzylamide]
ED50 ([2]; Carthworth Farms No. 1, in vivo, mouse, i.p., rotorod test at peak effect (Table 6), read-out: MOUSE ED50 Neurotox): 96.9 mg/kg
TD50 [2]: 96.9 mg/kg
ED50 ([3]; Rattus norvegicus, read-out: RAT anticonvulsant ED50 MES): 48.3 mg/kg
ED50 ([3]; Rattus norvegicus, Rats, p.o., TPE 4 hrs (Table 4 head), read-out: ED50): 48 mg/kg
Ratio to MES ([3]; rat, oral, Neurotox/MES (Table 6)): 20.7
PI protective index (TD50/MES ED50) ([3]; rat): >20.7
ED50 [3, 7]: 48.3 mg/kg
effect of chronic treatment on hexobarbital sleep time (hexobarbital sleep time): does not affect
effect of chronic treatment on anticonvulsant activity [4]: does not affect
ED50 ([1]; read-out: MES, ED50): 20.3 mg/kg
ED50 ([1]; read-out: MOUSE anticonvulsant dose ED50 MES): 20.3 mg/kg
PI protective index (TD50/MES ED50) [1]: 4.77
Ratio to MES ([1]; mouse, i.p., Neurotox/MES (Table 6)): 4.8
ED50 ([5]; oral (Table 6), read-out: RAT ED50 Neurotox): > 1000 mg/kg
TD50 [5]: > 1000 mg/kg
Cytochrome P-450 (liver microsomal system; [8]): 0.71 ± 0.06 nmol/mg
Erythromycin demethylase (liver microsomal system; [8]): 0.64 ± 0.07 nmol/mg/min
Ethylmorphine demethylase (liver microsomal system; [8]): 6.75 ± 0.37 nmol/mg/min
Glucoronyl Transferase (liver microsomal system; [8]): 9.77 ± 0.23 nmol/mg/min
NADPH Cytochrome c reductase (liver microsomal system; [8]): 160.3 ± 5.2 nmol/mg/min
Norbenzphetamine MI Complex (liver microsomal system; [8]): 0.023 ± 0.003 nmol/mg/min
Total Protein (liver microsomal system; [8]): 31.7 ± 1.4 mg
p-nitroanisole O-demethylase (liver microsomal system; [8]): 0.82 ± 0.12 nmol/mg/min
Liver Pathology Report (liver microsomal system; rat, oral, 48 mg/kg/day × 7 days): liver enzyme induction
Safety Ratio daily dose; MES (liver microsomal system; rat, oral, 48 mg/kg/day × 7 days vs oral MES ED50): −1
induction of liver microsomal enzyme systems (liver microsomal system; rats, chronic administration, 48 mg/kg, 7 days): induces some liver microsomal enzyme systems
Body Weight (liver microsomal system; [9]): 146.3 ± 3.8 g
Liver Weight (liver microsomal system; [9]): 8.54 ± 0.26 g

COC[C@@H](NC(C)=O)C(=O)NCc1cccc(F)c1 [Ex. 3, R-N-(3-Fluorobenzyl)2-Acetamide-3-Methoxypropionamide]
tox, TD50 [6]: 46.3 [0.25] mg/kg
PI protective index (TD50/MES ED50) ([3]; rat): >57.7
MES, ED50 ([3]; rat, at time of peak effect): 6.9 [0.5] mg/kg
PI protective index (TD50/MES ED50) [1]: 6.7
MES, ED50 [1]: 6.9 [0.25] mg/kg
tox, TD50 (motor impairment): >396 [0.5] mg/kg

CC(=O)N[C@H](C)C(=O)NCc1ccccc1 [compound 2, N-Acetyl-D-alanine-N′-benzylamide]
tox, TD50 [6]: 2.14 [0.5] mg/kg
PI protective index (TD50/MES ED50) ([3]; rat): >35.2
MES, ED50 ([3]; rat, at time of peak effect): 28.4 [4] mg/kg
PI protective index (TD50/MES ED50) [1]: 3.9
MES, ED50 [1]: 54.8 [0.5] mg/kg

CC(=O)N[C@@H](C)C(=O)NCc1ccccc1 [compound 3, N-Acetyl-L-alanine-N′-benzylamide]
tox, TD50 [6]: 841 [0.5] mg/kg
PI protective index (TD50/MES ED50) [1]: 1.5
MES, ED50 [1]: 548 [0.5] mg/kg

CC(=O)NC(C(=O)NCc1ccccc1)c1ccco1 (stereo not drawn) [compound 5, (D,L)-α-Acetamido-N-benzyl-2-furanacetamide]
tox, TD50 [6]: ˜40 mg/kg
PI protective index (TD50/MES ED50) [1]: >3.9
MES, ED50 [1]: 10.3 mg/kg

CC(=O)N[C@H](C(=O)NCc1ccccc1)c1ccco1 [compound 7, (L)-(+)-α-Acetamido-N-benzyl-2-furanacetamide]
tox, TD50 [6]: >200 mg/kg
MES, ED50 [1]: >25. mg/kg

COC[C@H](NC(C)=O)C(=O)NCc1ccccc1 [compound 11, (S)-N-Benzyl 2-Acetamido-3-methoxypropionamide]
TD50 [2]: > 300 mg/kg
ED50 [3, 7]: > 30 mg/kg
ED50 ([1]; read-out: MES, ED50): 100 to 300 mg/kg
TD50 [5]: > 30 mg/kg

CC(=O)N[C@H](CO)C(=O)NCc1ccccc1 [compound 12, (R)-N-Benzyl 2-Acetamidohydracylamide]
tox, TD50 [6]: >500 [2] mg/kg
PI protective index (TD50/MES ED50) [1]: >9.4
MES, ED50 [1]: 53.4 [2] mg/kg
